The target of the assay is T1, SARS-CoV-2 Spike A (wild-type) (Severe acute respiratory syndrome coronavirus 2, UniProt P0DTC2).
T1 construct: purchased Meso Scale Diagnostics, LLC V-PLEX SARS-CoV-2 Panel 13 (ACE2) Kit / Panel 23 (ACE2) Kit
Put plainly: MSD ACE2 competition assay (inhibition of Spike binding with ACE2, ECL), A (wild-type).

Setting [1] is: IC50 Wild Type, Wild Type Spike.

Where “and” joins values, the source holds several entries; their conditions need not be identical. Equal entries are not always repeated. Where two headings read alike, the source gives them in different places. Positions of bridges follow the written chain, without caps; N, C: chain ends. Non-standard residues stand in square brackets, D forms with d. Residues, ends and D or L forms follow the SMILES beside them. ξ: configuration not given here. ξIle = CC[C@H](C)C(N)C(=O)O

Consider `CC[C@H](C)[C@H](NC(=O)[C@H](CCCCN)NC(=O)[C@H](CCC(N)=O)NC(C)=O)C(=O)N[C@@H](Cc1ccc(O)cc1)C(=O)N[C@@H](CCC(=O)O)C(=O)N[C@H](C(=O)N[C@H]1CSSC[C@@H](C(=O)N[C@@H](CO)C(=O)N[C@@H](CC(=O)O)C(=O)N[C@@H](CC(C)C)C(=O)N[C@H](C(=O)N[C@@H](Cc2ccc(O)cc2)C(=O)N[C@@H](CCC(=O)O)C(=O)N[C@@H](Cc2ccccc2)C(=O)N[C@@H](CCSC)C(=O)N[C@@H](CCCCN)C(=O)N[C@@H](CCCCN)C(=O)NCC(=O)O)[C@@H](C)CC)NC(=O)[C@H](CCCNC(=N)N)NC(=O)[C@H](CCSC)NC(=O)[C@H](CO)NC(=O)[C@H](C)NC(=O)[C@H](CCC(=O)O)NC(=O)[C@H](C)NC(=O)[C@H](Cc2cnc[nH]2)NC(=O)CNC(=O)[C@H](CC(C)C)NC(=O)[C@H](CCC(=O)O)NC(=O)[C@H](CC(=O)O)NC(=O)[C@H](CC(C)C)NC(=O)[C@H](CC(C)C)NC(=O)[C@H](CCCNC(=N)N)NC1=O)[C@@H](C)CC` [Compound 133] (Ac-QKIYEICRLLDELGHAEASMRCSDLIYEFMKKG-OH; disulfide 7-22), for which, under setting [1], the IC50 (usually the midpoint of a concentration-inhibition curve) amounted to 1530 nM.
On to `CC[C@H](C)[C@H](N)C(=O)N[C@@H](CC(C)C)C(=O)N[C@@H](CCC(N)=O)C(=O)N[C@@H](CCCCN)C(=O)N[C@H](C(=O)N[C@@H](Cc1ccc(O)cc1)C(=O)N[C@@H](CCC(=O)O)C(=O)N[C@H](C(=O)N[C@@H](CCSC)C(=O)N[C@@H](CCCNC(=N)N)C(=O)N[C@@H](CC(C)C)C(=O)N[C@H]1CSSC[C@@H](C(=O)N[C@@H](CCSC)C(=O)N[C@@H](CCCNC(=N)N)C(=O)N[C@H](C(=O)N[C@@H](CO)C(=O)N[C@@H](CC(=O)O)C(=O)N[C@@H](CC(C)C)C(=O)N[C@H](C(=O)N[C@@H](Cc2ccc(O)cc2)C(=O)N[C@@H](CCC(=O)O)C(=O)N[C@@H](Cc2ccccc2)C(=O)N[C@@H](CCSC)C(=O)N[C@@H](CCCCN)C(=O)N[C@@H](CCCCN)C(=O)NCC(N)=O)[C@@H](C)CC)C(C)C)NC(=O)[C@H](C)NC(=O)[C@H](CCC(=O)O)NC(=O)[C@H](C)NC(=O)[C@H](Cc2c[nH]cn2)NC(=O)CNC(=O)[C@H](CC(C)C)NC(=O)[C@H](CCC(=O)O)NC(=O)[C@H](CC(=O)O)NC1=O)[C@@H](C)CC)[C@@H](C)CC` [Compound 179] (H-ILQKIYEIMRLCDELGHAEACMRVSDLIYEFMKKG-NH2; disulfide 12-21), for which the IC50 under setting [1] is 152 nM and 168 nM.
As to `CC[C@H](C)[C@H](NC(=O)[C@H](CCCCN)NC(=O)[C@H](CCC(N)=O)NC(C)=O)C(=O)N[C@@H](Cc1ccc(O)cc1)C(=O)N[C@@H](CCC(=O)O)C(=O)N[C@H](C(=O)N[C@H]1CSSC[C@@H](C(=O)N[C@@H](CO)C(=O)N[C@@H](CC(=O)O)C(=O)N[C@@H](CC(C)C)C(=O)N[C@H](C(=O)N[C@@H](Cc2ccc(O)cc2)C(=O)N[C@@H](CCC(=O)O)C(=O)N[C@@H](Cc2ccccc2)C(=O)N[C@@H](CCSC)C(=O)N[C@@H](CCCCN)C(=O)N[C@@H](CCCCN)C(=O)NCC(=O)O)[C@@H](C)CC)NC(=O)[C@H](CCCNC(=N)N)NC(=O)[C@H](CCSC)NC(=O)[C@H](CO)NC(=O)[C@H](C)NC(=O)[C@H](CCC(=O)O)NC(=O)[C@H](C)NC(=O)[C@H](Cc2cnc[nH]2)NC(=O)CNC(=O)[C@H](CC(C)C)NC(=O)[C@H](CCC(=O)O)NC(=O)[C@H](CC(=O)O)NC(=O)[C@H](CC(C)C)NC(=O)[C@H](CC(C)C)NC(=O)[C@H](CCCNC(=N)N)NC1=O)[C@@H](C)CC` [Compound 132] (Ac-QKIYEICRLLDELGHAEASMRCSDLIYEFMKKG-OH; disulfide 7-22), the IC50 (read-out: IC50 Wild Type, Wild Type Spike) was 5830 nM.
For the compound `CC[C@H](C)[C@H](NC(=O)[C@H](CC(C)C)NC(=O)[C@H](CC(=O)O)NC(=O)[C@H](CO)NC(=O)[C@@H](NC(=O)[C@H](CCCNC(=N)N)NC(=O)[C@H](CCSC)NC(=O)[C@H](CO)NC(=O)[C@H](C)NC(=O)[C@H](CCC(=O)O)NC(=O)[C@H](C)NC(=O)[C@H](Cc1c[nH]cn1)NC(=O)CNC(=O)[C@H](CC(C)C)NC(=O)[C@H](CCC(=O)O)NC(=O)[C@H](CC(=O)O)NC(=O)[C@H](CC(C)C)NC(=O)[C@H](CC(C)C)NC(=O)[C@H](CCCNC(=N)N)NC(=O)[C@H](CCSC)NC(=O)[C@@H](NC(=O)[C@H](CCC(=O)O)NC(=O)[C@H](Cc1ccc(O)cc1)NC(=O)[C@@H](NC(=O)[C@H](CCCCN)NC(=O)[C@H](CCC(N)=O)NC(=O)[C@H](CC(C)C)NC(=O)[C@@H](NC(=O)[C@H](Cc1c[nH]c2ccccc12)NC(=O)[C@H](CCC(=O)O)NC(=O)[C@H](CCCCN)NC(=O)[C@H](CC(=O)O)NC(C)=O)[C@@H](C)CC)[C@@H](C)CC)[C@@H](C)CC)C(C)C)C(=O)N[C@@H](Cc1ccc(O)cc1)C(=O)N[C@@H](CCC(=O)O)C(=O)N[C@@H](Cc1ccccc1)C(=O)N[C@@H](CCSC)C(=O)N[C@@H](CCCCN)C(=O)N[C@@H](CCCCN)C(=O)N[C@@H](CC(=O)O)C(=O)N[C@H]1CSSC[C@@H](C(=O)N[C@H](C(=O)O)[C@@H](C)O)NC(=O)[C@H](Cc2c[nH]c3ccccc23)NC(=O)[C@H](C(C)C)NC(=O)[C@H](CC(C)C)NC(=O)[C@H](CCC(=O)O)NC(=O)CNC(=O)[C@H](CC(C)C)NC(=O)[C@H](Cc2c[nH]cn2)NC(=O)[C@H](Cc2c[nH]c3ccccc23)NC(=O)[C@H](C)NC1=O` [Compound 114], the IC50 under setting [1] was 40.7 nM.
For the compound `CC[C@H](C)[C@H](NC(=O)[C@H](CC(C)C)NC(=O)[C@H](CC(=O)O)NC(=O)[C@H](CO)NC(=O)[C@@H](NC(=O)[C@H](CCCNC(=N)N)NC(=O)[C@H](CCSC)NC(=O)[C@@H]1CSSC[C@H](NC(=O)[C@H](CC(C)C)NC(=O)[C@H](CCCNC(=N)N)NC(=O)[C@H](CCSC)NC(=O)[C@@H](NC(=O)[C@H](CCC(=O)O)NC(=O)[C@H](Cc2ccc(O)cc2)NC(=O)[C@@H](NC(=O)[C@H](CCCCN)NC(=O)[C@H](CCC(N)=O)NC(=O)[C@H](CC(C)C)NC(=O)[C@@H](NC(=O)[C@H](Cc2c[nH]c3ccccc23)NC(=O)[C@H](CCC(=O)O)NC(=O)[C@H](CCCCN)NC(=O)[C@@H](N)CC(=O)O)[C@@H](C)CC)[C@@H](C)CC)[C@@H](C)CC)C(=O)N[C@@H](CC(=O)O)C(=O)N[C@@H](CCC(=O)O)C(=O)N[C@@H](CC(C)C)C(=O)NCC(=O)N[C@@H](Cc2c[nH]cn2)C(=O)N[C@@H](C)C(=O)N[C@@H](CCC(=O)O)C(=O)N[C@@H](C)C(=O)N1)C(C)C)C(=O)N[C@@H](Cc1ccc(O)cc1)C(=O)N[C@@H](CCC(=O)O)C(=O)N[C@@H](Cc1ccccc1)C(=O)N[C@@H](CCSC)C(=O)N[C@@H](CCCCN)C(=O)N[C@@H](CCCCN)C(=O)NCC(N)=O` [Compound 138] (H-DKEWILQKIYEIMRLCDELGHAEACMRVSDLIYEFMKKG-NH2; disulfide 16-25), the 50% inhibitory concentration (IC50) (IC50, Wild Type, Wild Type) stood at 12.7 nM.
Under setting [1], `CC[C@H](C)[C@H](NC(C)=O)C(=O)N[C@@H](CC(C)C)C(=O)N[C@@H](CCC(N)=O)C(=O)N[C@@H](CCCCN)C(=O)N[C@H](C(=O)N[C@@H](Cc1ccc(O)cc1)C(=O)N[C@@H](CCC(=O)O)C(=O)N[C@H](C(=O)N[C@H]1CSSC[C@@H](C(=O)N[C@@H](CO)C(=O)N[C@@H](CC(=O)O)C(=O)N[C@@H](CC(C)C)C(=O)N[C@H](C(=O)N[C@@H](Cc2ccc(O)cc2)C(=O)N[C@@H](CCC(=O)O)C(=O)N[C@@H](Cc2ccccc2)C(=O)N[C@@H](CCSC)C(=O)N[C@@H](CCCCN)C(=O)N[C@@H](CCCCN)C(=O)NCC(=O)O)[C@@H](C)CC)NC(=O)[C@H](CCCNC(=N)N)NC(=O)[C@H](CCSC)NC(=O)[C@H](CO)NC(=O)[C@H](C)NC(=O)[C@H](CCC(=O)O)NC(=O)[C@H](C)NC(=O)[C@H](Cc2cnc[nH]2)NC(=O)CNC(=O)[C@H](CC(C)C)NC(=O)[C@H](CCC(=O)O)NC(=O)[C@H](CC(=O)O)NC(=O)[C@H](CC(C)C)NC(=O)[C@H](CC(C)C)NC(=O)[C@H](CCCNC(=N)N)NC1=O)[C@@H](C)CC)[C@@H](C)CC` [Compound 135] (Ac-ILQKIYEICRLLDELGHAEASMRCSDLIYEFMKKG-OH; disulfide 9-24) gave an IC50 of 12.2 nM.
As to `CC[C@H](C)C(N)C(=O)N[C@@H](CC(C)C)C(=O)N[C@@H](CCC(N)=O)C(=O)N[C@@H](CCCCN)C(=O)N[C@H](C(=O)N[C@@H](Cc1ccc(O)cc1)C(=O)N[C@@H](CCC(=O)O)C(=O)N[C@H](C(=O)N[C@H]1CSSC[C@@H](C(=O)N[C@@H](CO)C(=O)N[C@@H](CC(=O)O)C(=O)N[C@@H](CC(C)C)C(=O)N[C@H](C(=O)N[C@@H](Cc2ccc(O)cc2)C(=O)N[C@@H](CCC(=O)O)C(=O)N[C@@H](Cc2ccccc2)C(=O)N[C@@H](CCSC)C(=O)N[C@@H](CCCCN)C(=O)N[C@@H](CCCCN)C(=O)NCC(=O)O)[C@@H](C)CC)NC(=O)[C@H](CCCNC(=N)N)NC(=O)[C@H](CCSC)NC(=O)[C@H](CO)NC(=O)[C@H](C)NC(=O)[C@H](CCC(=O)O)NC(=O)[C@H](C)NC(=O)[C@H](Cc2cnc[nH]2)NC(=O)CNC(=O)[C@H](CC(C)C)NC(=O)[C@H](CCC(=O)O)NC(=O)[C@H](CC(=O)O)NC(=O)[C@H](CC(C)C)NC(=O)[C@H](CC(C)C)NC(=O)[C@H](CCCNC(=N)N)NC1=O)[C@@H](C)CC)[C@@H](C)CC` (stereo partly shown) [Compound 134] (H-[ξIle]LQKIYEICRLLDELGHAEASMRCSDLIYEFMKKG-OH; disulfide 9-24), the IC50 under setting [1] was 12.2 nM.

These data come from patent US20260306644A1, “ANTIBODY RECRUITING MOLECULES FOR THE TREATMENT OF CORONAVIRUS DISEASE-19” (priority 2023, published 2026).
